Reference: PMC10383271

Key:
[1] = tested on: normal human dermal fibroblasts (NHDF); test: MTT assay, viability of NHDF cell culture (ISO 10993 part 5); assay type: cell-based; details: NHDF cell cultures, 24 h incubation; for IC50: Homo sapiens, MTT, mean (± SD), n = 5
Experimental: The viability of the normal human dermal fibroblasts (NHDF) cell culture after 24 h incubation with the tested compounds 5a-c-7a-c was assessed by carrying out the MTT assay. This test was performed according to ISO 10993 part 5, Appendix C. For all tested compounds, the IC50 values were calculated using four-parameter logistics. Normal human dermal fibroblasts (NHDF) were purchased from the American Type Culture Collection (ATCC) for cytotoxicity evaluation of the tested compounds. The cells were grown in Dulbecco's Modified Eagle Medium DMEM with […] glucose without phenol red supplemented with 10% FBS and 2 mM L-glutamine, and 25 μg/mL gentamicin. The NHDF cells were cultured under standard conditions (5% CO2, 37 °C, and 95% humidity) with evaluation morphology and confluence at least twice a week. For the assay, the cells were used only in a logarithmic growth phase, and the TrypLE solution was used for 2 min at 37 °C to detach cells. Then, the TrypLE solution was inactivated by adding a culture medium, and the suspension of cells was collected into a tube and centrifuged for 5 min at 1000 rpm. Then, the supernatant was removed, fresh medium was added, and the pellet was resuspended and calculated using the […] chamber. The suspension of cells was prepared to allow seeding 10,000 cells/well density and incubated for 24 h to regenerate in CO2-incubator. The tested compounds were dissolved in DMSO to a final concentration of 10 mM and stored at -20 °C. Before use, the compound solution was kept at room temperature until thawing, and then, samples with 3 different concentrations of compounds were prepared (100 μM, 50 μM, and 10 μM) for each compound. The tested concentrations of compounds were prepared in a culture medium. […] The evaluation of the cytotoxicity of the newly synthesized compounds was carried out in accordance with the ISO 10,993 part V standard by performing the MTT test. After seeding at a density of 10,000 cells per well and adhering overnight, the NHDF cells were treated with the test compounds for 24 h in a CO2 incubator. The supernatant was then removed, the cells were washed with PBS, a 1mg/mL solution of MTT dissolved in MEM was added, and the cultures were re-incubated for 2 h in a CO2 incubator. The medium was then removed, and for a further 30 min, the formazan crystals were dissolved in 100 μL of isopropanol. The absorbance was measured with a Varioskan Go microplate reader at a wavelength of 570 nm. […] For enzyme assays, the IC50 was calculated according to the procedure provided by the kit manufacturer. The significance was set at p < 0.05. Based on the tests performed, the test power was calculated to be greater than 80%.

[2] = target: T1, 15-LOX (Glycine max, UniProt P08170); test: 15-LOX inhibition, Cayman's Lipoxygenase Inhibitor Screening Assay Kit
T1 sequence (P08170 1-839): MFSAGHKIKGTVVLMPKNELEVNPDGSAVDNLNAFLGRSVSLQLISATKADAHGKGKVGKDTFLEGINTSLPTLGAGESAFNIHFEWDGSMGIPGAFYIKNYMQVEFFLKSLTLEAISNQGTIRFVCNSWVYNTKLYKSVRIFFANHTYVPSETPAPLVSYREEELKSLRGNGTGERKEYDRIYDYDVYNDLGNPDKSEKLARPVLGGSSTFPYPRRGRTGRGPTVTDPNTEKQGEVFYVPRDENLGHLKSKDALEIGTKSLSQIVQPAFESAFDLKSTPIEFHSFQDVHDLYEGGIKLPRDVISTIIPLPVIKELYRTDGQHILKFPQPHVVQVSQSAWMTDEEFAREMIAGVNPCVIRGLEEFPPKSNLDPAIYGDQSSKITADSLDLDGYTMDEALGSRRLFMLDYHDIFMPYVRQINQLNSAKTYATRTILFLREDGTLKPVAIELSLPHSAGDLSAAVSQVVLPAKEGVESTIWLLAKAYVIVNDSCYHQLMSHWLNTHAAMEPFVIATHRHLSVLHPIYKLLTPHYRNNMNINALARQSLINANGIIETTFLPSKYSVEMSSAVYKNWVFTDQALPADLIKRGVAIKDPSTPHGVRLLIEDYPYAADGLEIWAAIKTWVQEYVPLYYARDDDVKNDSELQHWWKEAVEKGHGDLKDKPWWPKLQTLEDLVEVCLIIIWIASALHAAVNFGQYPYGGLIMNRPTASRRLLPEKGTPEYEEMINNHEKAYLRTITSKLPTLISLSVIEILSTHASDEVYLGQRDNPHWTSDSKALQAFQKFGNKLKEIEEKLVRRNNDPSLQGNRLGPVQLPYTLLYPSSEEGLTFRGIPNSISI

[3] = target: T2, COX-2 (Homo sapiens, UniProt P35354); test: COX-2 inhibition, Cayman's COX Colorimetric Inhibitor Screening Assay Kit; details: for Selectivity Index (SI): COX-2 IC50/COX-1 IC50
T2 sequence (P35354 18-604): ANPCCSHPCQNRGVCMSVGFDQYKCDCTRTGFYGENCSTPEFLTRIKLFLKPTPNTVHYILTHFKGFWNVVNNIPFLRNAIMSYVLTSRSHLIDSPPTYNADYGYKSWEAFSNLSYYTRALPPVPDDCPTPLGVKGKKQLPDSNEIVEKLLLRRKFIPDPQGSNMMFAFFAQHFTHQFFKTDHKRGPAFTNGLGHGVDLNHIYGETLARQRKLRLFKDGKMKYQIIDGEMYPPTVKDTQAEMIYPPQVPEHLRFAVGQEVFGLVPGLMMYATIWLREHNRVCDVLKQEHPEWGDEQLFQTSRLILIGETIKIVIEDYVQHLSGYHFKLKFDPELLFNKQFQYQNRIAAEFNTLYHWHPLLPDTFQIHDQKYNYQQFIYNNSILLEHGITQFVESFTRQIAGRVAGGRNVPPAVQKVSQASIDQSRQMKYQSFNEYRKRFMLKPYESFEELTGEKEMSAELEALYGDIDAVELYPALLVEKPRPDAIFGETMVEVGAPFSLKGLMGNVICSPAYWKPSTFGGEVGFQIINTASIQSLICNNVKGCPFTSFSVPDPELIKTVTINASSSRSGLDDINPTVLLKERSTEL

[4] = target: T3, COX-1 (Ovis aries, UniProt P05979); test: COX-1 inhibition, Cayman's COX Colorimetric Inhibitor Screening Assay Kit
T3 sequence (P05979 25-600): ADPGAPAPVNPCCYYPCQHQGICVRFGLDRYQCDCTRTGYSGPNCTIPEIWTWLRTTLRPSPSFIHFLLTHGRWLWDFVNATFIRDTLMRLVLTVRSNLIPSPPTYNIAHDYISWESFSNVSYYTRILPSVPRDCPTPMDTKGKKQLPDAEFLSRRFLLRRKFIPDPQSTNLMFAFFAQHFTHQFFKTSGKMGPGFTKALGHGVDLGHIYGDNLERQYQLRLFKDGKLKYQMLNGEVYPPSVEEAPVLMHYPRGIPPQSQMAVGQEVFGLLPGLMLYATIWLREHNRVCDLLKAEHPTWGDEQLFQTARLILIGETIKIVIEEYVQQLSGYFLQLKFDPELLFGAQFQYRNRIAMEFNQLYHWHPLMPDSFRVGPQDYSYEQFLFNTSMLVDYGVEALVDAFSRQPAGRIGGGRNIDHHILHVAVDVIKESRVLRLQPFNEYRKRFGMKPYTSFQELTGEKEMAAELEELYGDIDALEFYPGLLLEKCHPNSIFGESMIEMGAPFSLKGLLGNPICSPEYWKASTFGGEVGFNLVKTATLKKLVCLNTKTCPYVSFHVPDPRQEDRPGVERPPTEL

In the case of `CCCCn1c(C)c2c(OCC(=O)N/N=C/c3ccc(C)cc3)nn(C)c(=O)c2c1C` [Compound 7a, 2-(6-butyl-3,5,7-trimethyl-4-oxo-pyrrolo[3,4-d]pyridazin-1-yl)oxy-N-[(Z/E)-p-tolylmethyleneamino]acetamide], the IC50 [1] is reported as 116 ± 3.6 µM, the “Cell Morphology in Culture” value [1] is reported as “Cells with an elongated shape characteristic of fibroblasts, the granularities were observed in 3–5 fields of view from 10 analyzed fields” and the melting point is reported as 209 to 211 °C. The IC50 [2] was 15.3 ± 2.1 µM, the IC50 [3] was 16.1 ± 1.8 µM and the “Selectivity Index (SI)” value [3] was 0.17. The IC50 [4] was 93.8 ± 4.2 µM.
With `Cc1ccc(/C=N/NC(=O)COc2nn(C)c(=O)c3c(C)n(-c4ccccc4)c(C)c23)cc1` [Compound 7b, N-[(Z/E)-p-tolylmethyleneamino]-2-(3,5,7-trimethyl-4-oxo-6-phenyl-pyrrolo[3,4-d]pyridazin-1-yl)oxy-acetamide] the IC50 [1] was 181 ± 8.7 µM, the “Cell Morphology in Culture” value [1] was “Normal morphology of fibroblasts-elongated cells, single granular cells in 1 of 10 assessed fields of view” and the melting point was 271 to 272 °C. For the same compound, the IC50 [2] was 13.7 ± 0.07 µM, the IC50 [3] was 24.5 ± 2.1 µM and the “Selectivity Index (SI)” value [3] was 0.27. The IC50 [4] was 91.5 ± 5.1 µM.
With `Cc1ccc(/C=N/NC(=O)COc2nn(C)c(=O)c3c(C)n(-c4cccc(Cl)c4)c(C)c23)cc1` [Compound 7c, 2-[6-(3-chlorophenyl)-3,5,7-trimethyl-4-oxo-pyrrolo[3,4-d]pyridazin-1-yl]oxy-N-[(Z/E)-p-tolylmethyleneamino]acetamide] the IC50 [1] was 81.6 ± 5.1 µM, the “Cell Morphology in Culture” value [1] was “Cells with an elongated shape characteristic of fibroblasts, the granularities were observed in 3–5 fields of view from 10 analyzed fields” and the melting point was 248 to 250 °C. The IC50 [2] was 13.3 ± 0.02 µM, the IC50 [3] was 22.7 ± 2.5 µM and the “effect on COX-1 isoform (in words)” value ([4]; enzymatic assay) was “does not affect the COX-1 isoform”.
In the case of `Cc1c2c(OCC(=O)N/N=C/c3ccccc3O)nn(C)c(=O)c2c(C)n1-c1ccccc1` [Compound 6b, N-[(Z/E)-(2-hydroxyphenyl)methyleneamino]-2-(3,5,7-trimethyl-4-oxo-6-phenyl-pyrrolo[3,4-d]pyridazin-1-yl)oxy-acetamide], the IC50 [1] is reported as 80.7 ± 1.9 µM, the “Cell Morphology in Culture” value [1] is reported as “Cells with an elongated shape characteristic of fibroblasts, the granularities were observed in 3–5 fields of view from 10 analyzed fields” and the melting point is reported as 214 to 217 °C. The IC50 [2] was 13.7 ± 0.03 µM, the IC50 [3] was 27.7 ± 2.5 µM and the “Selectivity Index (SI)” value [3] was 0.28. The IC50 [4] was 97.7 ± 6.8 µM.
For `Cc1c2c(OCC(=O)N/N=C/c3ccccc3O)nn(C)c(=O)c2c(C)n1-c1cccc(Cl)c1` [Compound 6c, 2-[6-(3-chlorophenyl)-3,5,7-trimethyl-4-oxo-pyrrolo[3,4-d]pyridazin-1-yl]oxy-N-[(Z/E)-(2-hydroxyphenyl)methyleneamino]acetamide], the IC50 [1] was 211 ± 9.6 µM, the “Cell Morphology in Culture” value [1] was “Normal morphology of fibroblasts–elongated cells, single granular cells in 1 of 10 assessed fields of view” and the melting point was 230 to 232 °C. For the same compound, the IC50 [2] was 14.7 ± 0.02 µM, the IC50 [3] was 9.8 ± 3.1 µM and the “Selectivity Index (SI)” value [3] was 0.13. For the same compound, the IC50 [4] was 76.8 ± 6 µM.
For `CCCCn1c(C)c2c(OCC(=O)N/N=C/c3ccccc3O)nn(C)c(=O)c2c1C` [Compound 6a, 2-(6-butyl-3,5,7-trimethyl-4-oxo-pyrrolo[3,4-d]pyridazin-1-yl)oxy-N-[(Z/E)-(2-hydroxyphenyl)methyleneamino]acetamide], the IC50 [1] was 88.7 ± 4.1 µM, the “Cell Morphology in Culture” value [1] was “Cells with an elongated shape characteristic of fibroblasts, the granularities were observed in 3–5 fields of view from 10 analyzed fields” and the melting point was 225 to 227 °C. For the same compound, the IC50 [2] was 13.6 ± 0.03 µM, the IC50 [3] was 16.4 ± 1.1 µM and the “Selectivity Index (SI)” value [3] was 0.18. For the same compound, the IC50 [4] was 89.2 ± 4.1 µM.
